Data from the METLIN SMRT retention time set (Domingo-Almenara et al. 2019).

Assay: gradient 5% acetonitrile 3 min, to 50% in 2 min, to 85% in 15 min, held 3 min, 100 µL/min
Settings: column: Zorbax Extend-C18 2.1 x 50 mm; eluents: water / acetonitrile, 0.1% formic acid
Summary of the method: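 Standards, all pure, were combined into mixtures of ~100 molecules and run at 100 μL/min on a Zorbax Extend-C18 column (2.1 × 50 mm, 1.8 μm) with water and acetonitrile, each containing 0.1% formic acid. A coupled quadrupole time-of-flight mass spectrometer operated in positive and negative ionization mode. Retention time values come from computationally picked adduct peaks, each inspected manually.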

Structure (SMILES)	RP-LC retention time
Cc1c(NC(=O)Cc2csc(NC(=O)C(C)(C)C)n2)c(=O)n(-c2ccccc2)n1C	630 s
CCc1noc(NC(C)=O)c1-c1ccc(OC)c(S(=O)(=O)NCc2ccccc2OC)c1	791 s
CS(=O)(=O)CCNCc1nc(-c2ccc3ncnc(Nc4ccc(OCc5cccc(F)c5)c(Cl)c4)c3c2)cs1	717 s
COc1ccccc1C1=NN(C(C)=O)C(C)(c2cccc(OC(C)=O)c2)O1 (stereo not drawn)	852 s
CCOc1ccc(NC(=O)Cn2c(=O)cc(-c3nc(C(C)C)no3)c3ccccc32)cc1	1030 s
CC1(C)CC(=O)C2=C(C1)Nc1ccccc1N(CC(=O)NCc1cccnc1)C2c1ccco1 (stereo not drawn)	614 s
COC(=O)C1C(=O)C2=C(CC1C)NC(C)=C(C(=O)OC(C)C)C2c1ccccc1OC (stereo not drawn)	908 s
CCOC(=O)c1sc(NC(=O)c2ccco2)nc1-c1ccccc1	899 s
Nc1n[nH]c(-c2ccccc2)n1	619 s
COc1ccc(CNC(=O)NCC(c2ccccc2Cl)N(C)C)cc1 (stereo not drawn)	577 s
CSc1ncn(-c2nc(NC(C)C)nc(N(C)C)n2)n1	874 s
Cn1c(=O)c2cc(C(=O)Nc3ccccc3)cnc2n(-c2ccccc2)c1=O	862 s
O=C(c1ccc[nH]1)N1CCC2(CC1)N=C(c1ccc(Cl)cc1)NO2	776 s
CCOc1cccc(-c2noc(Cn3ccn(-c4ccccc4C)c(=O)c3=O)n2)c1	911 s
CCC(C)N(CCNC(=O)Cc1noc2ccc(C)cc12)Cc1ccco1 (stereo not drawn)	682 s
CCc1nc(-c2cccc(-c3noc(CNS(=O)(=O)c4ccccc4)n3)c2)cs1	1070 s
Cc1sc(NC(=O)CC(C)C)nc1-c1ccc2c(c1)NC(=O)C(C)O2 (stereo not drawn)	865 s
CC(=O)c1ccc(S(=O)(=O)N2CCc3nc[nH]c3C2)cc1	585 s
O=C(CCc1ccc2nc(-c3ccccc3)[nH]c2c1)NCc1cccnc1	555 s
COc1cccc2cc(C(=O)NCc3ccc(S(N)(=O)=O)cc3)oc12	669 s
Cc1cc(NC(=O)Nc2cc(Cl)ccc2C)no1	972 s
CCc1noc(NC(C)=O)c1-c1ccc(C)c(S(=O)(=O)Nc2ccc(OC)c(OC)c2)c1	840 s

Structure (SMILES)	RP-LC retention time
Cc1ccc(C(=O)Nc2cc(-c3ccsc3)no2)c(C)c1	1030 s
O=C(Nc1ccnn1Cc1ccco1)c1cc(=O)c2cc(Cl)ccc2o1	830 s
CC(C)CN(CC(C)C)c1nc(-c2ccc([N+](=O)[O-])cc2)nc2ccccc12	1250 s
CN1C[C@H](C(=O)N[C@]2(C)O[C@@]3(O)[C@@H]4CCCN4C(=O)[C@H](Cc4ccccc4)N3C2=O)CC2c3cccc4[nH]cc(c34)C[C@H]21 (stereo partly drawn)	683 s
O=C(CSc1nnc2sc3ccccc3n12)Nc1ccc2c(c1)OCO2	691 s
CCn1c(=O)oc2cc(-c3noc(-c4cc(Cl)ccc4F)n3)ccc21	1180 s
Cc1nn(-c2ccccc2)c(C)c1/C=C1\Oc2cc(O)ccc2C1=O	782 s
O=C(NCCc1c[nH]c2ccccc12)C(=O)NCc1cccs1	783 s
Cn1cc(CC(=O)NCc2ccccc2Cl)c2cccnc21	706 s
COc1ccc(-c2nc(C3CC(=O)N(c4ccc(OC)c(OC)c4)C3)no2)c(C)c1 (stereo not drawn)	911 s
CCc1ccc(-n2nnc3c(=O)n(Cc4nc(-c5ccccc5Cl)no4)cnc32)cc1	1120 s
O=S(=O)(c1ccc(F)c(F)c1)N1CCc2nc(-c3ccccc3)ncc2C1	1090 s
O=C(O)c1cccn2c(=O)c3ccccc3nc12	627 s
OCc1cnc(SCc2cccc(C(F)(F)F)c2)n1Cc1ccc2c(c1)OCO2	649 s
O=C(Nc1ccc(C2=NCCN2)cc1)c1ccc(Cl)c(C(=O)Nc2ccc(C3=NCCN3)cc2)c1	618 s
O=c1n(Cc2cccc(Cl)c2)nc2ccc(S(=O)(=O)N3CCCC3)cn12	919 s
Cc1ccc2nc3sc(C(=O)NCC4COc5ccccc5O4)cc3c(=O)n2c1 (stereo not drawn)	819 s
COC(=O)c1ccccc1NC(=O)CCc1c(-c2ccc(Cl)cc2)nc2ccccn12	772 s
COc1cc(C(=O)Nc2noc3ncccc23)cc(OC)c1OC	620 s
CC(C)NC(=O)c1ccc2c(c1)nc(CN(C)C(=O)NCc1ccco1)n2C	602 s
CCOCCCNS(=O)(=O)c1cc(-c2cc(C)[nH]n2)sc1C	720 s
Cc1ccc(NS(=O)(=O)c2c(C)nc3sc4cc(C)ccc4n3c2=O)cc1	1160 s

More lines, now with the values ahead:

RP-LC retention time	Structure (SMILES)
832 s	Cc1[nH]c(C(=O)N2CCC(CC(=O)NC(C)c3ccccc3)CC2)c(C)c1C(=O)OC(C)C (stereo not drawn)
863 s	CC(C)c1noc(-c2ccnc(-n3cnc(C(=O)N4CCSCC4)c3)c2)n1
620 s	COc1ccc(NC(=O)N2CCN(c3cc(-c4ccc(OC)c(OC)c4)ncn3)CC2)cc1OC
799 s	O=C(C1CC(=O)N(c2n[nH]c3ccccc23)C1)N1CCN(c2ccc(Cl)cc2)CC1 (stereo not drawn)
840 s	CC1CCCN(C(=O)c2cn(-c3ccc(-c4nc(C5CC5)no4)cn3)cn2)C1 (stereo not drawn)
611 s	Nc1nc(CN2CCN(c3ncccn3)CC2)nc(N2CCCCC2)n1
717 s	Cc1ccccc1C(=O)NCCc1nc2cccnc2n1CC(C)C
802 s	COc1ccc(Cl)cc1C(=O)NC1CCN(c2cc(-c3cccs3)[nH]n2)C1 (stereo not drawn)
1000 s	CC1CCN(S(=O)(=O)c2cccc(-c3cn4cc(Cl)ccc4n3)c2)CC1
597 s	O=C(c1cccnc1)N1CC(n2cc(COCC3CC3)nn2)C1
752 s	COc1ccc(-c2noc(C3CCCN3C(=O)Nc3ccc4c(c3)OCCO4)n2)cc1 (stereo not drawn)
601 s	O=S(=O)(c1cccc(C(F)(F)F)c1)N1CCN(c2ccc(-n3ccnc3)nn2)CC1
693 s	CCCNC(=O)C1CCCN(c2ccc(SCC(=O)Nc3cccc(SC)c3)nn2)C1 (stereo not drawn)
739 s	Cc1cc(C)n(-c2ccnc(N3CCC(C(=O)NCC4CC4)CC3)n2)n1
1140 s	CC(C)c1ccc(NC(=O)C(=O)c2cn(CC(=O)N3CCCC3)c3ccccc23)cc1
1020 s	Cc1cc(C)cc(NC(=O)C2CCN(S(=O)(=O)c3cc(-c4noc(C5CC5)n4)cs3)CC2)c1
782 s	Cn1c(C(=O)NCCN2CCCCCC2)cc2c(-c3cccs3)nn(-c3ccccc3)c21
568 s	CCSc1ccccc1C(=O)N1CCN(CCn2cccn2)CC1
839 s	CCc1noc(NC(C)=O)c1-c1ccc(C)c(S(=O)(=O)NC2CCCCC2)c1
656 s	CC(C)C(=O)N1CCc2c(c(C(=O)N3CCC(C(=O)N4CCCCCC4)CC3)nn2C)C1
600 s	CCOc1ccc2ncc(C(=O)c3ccc(OC)cc3)c(N3CCN(CC)CC3)c2c1
760 s	CCCn1ccc2sc(C)c(C(=O)N3CCCCC3)c2c1=O

RP-LC retention time	Structure (SMILES)
959 s	CCN(CC)S(=O)(=O)c1ccc2c(c1)CC(C(=O)NC1CCCCCCC1)N2C(C)=O (stereo not drawn)
942 s	Cc1nc(Cn2cccc2C(=O)NCc2ccc(Br)cc2)no1
761 s	CCc1ccc(C2=C(C)C(N3CCCN(C(=O)NCCCOC)CC3)=NS2(=O)=O)cc1
941 s	CC(C)CN1CCCCc2cc(C(=O)NC3CCS(=O)(=O)C3)sc21 (stereo not drawn)
764 s	O=C(COc1ccc(Cl)cc1)NCC1CCOCC1
666 s	O=C(Cc1ccsc1)Nc1ccc2ncnc(N3CCCCC3)c2c1
632 s	Cc1ccc(C)c(NC(=O)N2CCN(c3cc(-c4cccnc4)[nH]n3)CC2)c1
830 s	O=C(NCc1cc(F)cc(F)c1)c1ccc2c(c1)nc1n2CCN(C2CCCCC2)C1=O
588 s	CN(C)c1ncccc1C(=O)NC1CCCCC1
1080 s	Cc1nn(-c2nc(-c3ccc(Cl)cc3)cs2)c(C)c1CC(=O)NC(C)C
698 s	COc1ccccc1C(=O)N1CCN(C2=NS(=O)(=O)c3ccccc32)CC1
1010 s	Cc1cc(-c2nnc(-c3ccccc3)o2)c(C)n1CC(=O)Nc1ccc(F)c(F)c1
790 s	Cc1cccc(C)c1NC(=O)NCc1ccco1
590 s	CCCn1ccc2oc(C)c(C(=O)N3CCC(N4CCCCC4)CC3)c2c1=O
907 s	Cc1ccccc1-n1nc2c(c1NC(=O)CSCc1ccccc1)CSC2
738 s	CCc1nnc2c(=O)n(CC(=O)N3CCN(c4ccccc4)CC3)c3cccnc3n12
780 s	O=C(CC1CCCC1)N1CCCC1c1nc(C2CCOCC2)no1 (stereo not drawn)
948 s	CCC1Oc2ccc(S(=O)(=O)N3CCC(C(=O)Nc4cc(Cl)ccc4C)CC3)cc2NC1=O (stereo not drawn)
1150 s	CCCN1C(=O)COc2cc(-c3noc(C(=O)NC4CCCCCC4)n3)ccc21
811 s	COCCOC1CCN(S(=O)(=O)c2cccc(OC)c2)CC1
749 s	Cn1c(=O)n(CC(=O)O)c(=O)c2c1nc1n2CCCN1c1ccc(Cl)cc1
701 s	CCOC(=O)c1cc(NC(=O)Nc2cccc(OC)c2)c(C)nc1C
